# Reference: PMC7011920, “Synthesis and biological evaluation of stilbene derivatives coupled to NO donors as potential antidiabetic agents” (Journal of Enzyme Inhibition and Medicinal Chemistry, 2018)
# Test system: STZ-induced diabetic mice
# Experiment: Acute hypoglycaemic assay in STZ-diabetic mice
# Format: in vivo
# Conditions: for Blood glucose concentration: mean ± SEM, six mice
# Method: The antidiabetic activity was determined by using a standard method. […] Especially, compound 7c caused significant decreases in blood glucose levels when compared with vehicle-treated groups (p < .05). […] In STZ-diabetic animals, the hypoglycaemic effect of pterostilbene (40 mg/kg of bw) was larger than 50% since 5 h and persisted throughout the experiment. Target compound 7c (40 mg/kg of bw) caused significant decreases in blood glucose levels compared with pterostilbene (40 mg/kg of bw).
# Type II DM was induced in mice by a single intraperitoneal injection of freshly prepared STZ (Sigma Aldrich, St. Louis, MO) dissolved in 0.1 M citrate buffer, pH 4.5, in a […] of 120 mg/kg of bw. After seven days of STZ administration, blood glucose levels of each mouse were determined. Mice with blood glucose levels higher than 11 mM were considered diabetic and were included in the study.
# STZ-induced diabetic mice and normal mice were placed in single cages with wire-net floors and deprived of food for 12 h before experimentation but allowed free access to tap water throughout. The compounds (at the doses of 10, 40, and 100 mg/kg of bw) were suspended in 0.05% Tween-80 in saline solution. Glibenclamide (10 mg/kg of bw) was suspended in the same vehicle. The target compounds were freshly prepared immediately before experimentation and administered by the intragastrical route at the doses of 10 ml/kg of bw. Control mice received only the vehicle (0.05% Tween-80 in saline solution) by the same route. Blood glucose levels were measured at 0, 1.5, 3, 5, 7, and 9 h after drugs administration.
smiles,measurement,setting,value
COc1cc(/C=C/c2ccc(OCCCCCCO[N+](=O)[O-])cc2)cc(OC)c1 [3c],Blood glucose concentration,"dose 10 mg/kg per os, 0 h",22.6 ± 7.0 mM
same,Blood glucose concentration,"dose 10 mg/kg per os, 1.5 h",18.1 ± 7.3 mM
same,% Variation of glycaemia,"dose 10 mg/kg per os, 1.5 h vs 0 h",–20.13%
same,Blood glucose concentration,"dose 10 mg/kg per os, 3 h",17.0 ± 6.6 mM
same,% Variation of glycaemia,"dose 10 mg/kg per os, 3 h vs 0 h",–24.78%
same,Blood glucose concentration,"dose 10 mg/kg per os, 5 h",16.8 ± 6.1 mM
same,% Variation of glycaemia,"dose 10 mg/kg per os, 5 h vs 0 h",–25.66%
same,Blood glucose concentration,"dose 10 mg/kg per os, 7 h",15.7 ± 4.3 mM
same,% Variation of glycaemia,"dose 10 mg/kg per os, 7 h vs 0 h",–30.53%
same,Blood glucose concentration,"dose 10 mg/kg per os, 9 h",13.2 ± 3.5 mM
same,% Variation of glycaemia,"dose 10 mg/kg per os, 9 h vs 0 h",–41.59%
same,Blood glucose concentration,"dose 40 mg/kg per os, 0 h",21.7 ± 5.7 mM
same,Blood glucose concentration,"dose 40 mg/kg per os, 1.5 h",17.2 ± 5.6 mM
same,% Variation of glycaemia,"dose 40 mg/kg per os, 1.5 h vs 0 h",–20.74%
same,Blood glucose concentration,"dose 40 mg/kg per os, 3 h",16.3 ± 7.5 mM
same,% Variation of glycaemia,"dose 40 mg/kg per os, 3 h vs 0 h",–25.04%
same,Blood glucose concentration,"dose 40 mg/kg per os, 5 h",15.7 ± 6.4 mM
same,% Variation of glycaemia,"dose 40 mg/kg per os, 5 h vs 0 h",–27.57%
same,Blood glucose concentration,"dose 40 mg/kg per os, 7 h",14.3 ± 9.6 mM
same,% Variation of glycaemia,"dose 40 mg/kg per os, 7 h vs 0 h",–34.02%
same,Blood glucose concentration,"dose 40 mg/kg per os, 9 h",9.9 ± 4.6 mM
same,% Variation of glycaemia,"dose 40 mg/kg per os, 9 h vs 0 h",–54.30%
same,Blood glucose concentration,"dose 100 mg/kg per os, 0 h",18.6 ± 1.9 mM
same,Blood glucose concentration,"dose 100 mg/kg per os, 1.5 h",15.9 ± 3.6 mM
same,% Variation of glycaemia,"dose 100 mg/kg per os, 1.5 h vs 0 h",–14.34%
same,Blood glucose concentration,"dose 100 mg/kg per os, 3 h",15.2 ± 3.0 mM
same,% Variation of glycaemia,"dose 100 mg/kg per os, 3 h vs 0 h",–18.28%
same,Blood glucose concentration,"dose 100 mg/kg per os, 5 h",15.1 ± 3.7 mM
same,% Variation of glycaemia,"dose 100 mg/kg per os, 5 h vs 0 h",–19.00%
same,Blood glucose concentration,"dose 100 mg/kg per os, 7 h",13.4 ± 4.7 mM
same,% Variation of glycaemia,"dose 100 mg/kg per os, 7 h vs 0 h",–28.23%
same,Blood glucose concentration,"dose 100 mg/kg per os, 9 h",11.1 ± 3.0 mM
same,% Variation of glycaemia,"dose 100 mg/kg per os, 9 h vs 0 h",–40.32%
